Test results reported in US6992169B2, “Carrier based drug delivery system” (Cyclacel Limited, priority 1998, dated 2006).
Where no end group is shown, it is not given here.

Assays:
[1] = Serum stability of drug-ester linkages; assay type: in vitro ADME; conditions: bovine, 10% FCS in DMEM, 1 to 40 μM, 37° C., appearance of free drug, read-out: Serum t1/2 of Drug-Linker Ester bond
Description: Hydrolysis of the ester bonds between the drug hydroxy groups and the linker carboxyl groups was assessed by appearance of free podophyllotoxin or paclitaxel.

[2] = Serum stability of peptide vectors; conditions: for half-life: bovine, serum
Description: Test compounds were dissolved in cell-conditioned tissue culture medium (10% FCS in DMEM) at concentrations varying from 1 to 40 μM. The solutions were incubated at 37° C. and samples were withdrawn at intervals. After filtration, aliquots were analysed by RP-HPLC (using a photodiode array UV detector). Intact vectors were identified by reference to chromatograms obtained with authentic peptides and by DE MALDI-TOF analysis of appropriate peak fractions. […] The latter was chosen preferentially in order to replicate the conditions used for cytotoxicity assays on cell cultures.

HL60 cells = assay: Intracellular stability; assay type: in vitro ADME; conditions: 15 μM for 1 h, washed, 1 additional h neat medium
Description: After the incubation, cells were washed extensively with PBS until no test compound was detectable in the washes. Cells were incubated for one additional h with neat medium. Afterwards the cells were pelleted, resuspended in 50 mM Tris pH 7.5, containing a cocktail of protease inhibitors and they were solubilised by ultrasonication for 1 min. The insoluble fraction was pelleted for 15 min using an Eppendorf centrifuge and the supernatant was analysed by anal. RP-HPLC (0-60% MeCN gradient, λ=254 nm).

[3] = molecular target: purified recombinant human topoisomerase II (Homo sapiens, UniProt P11388); assay: Topoisomerase II inhibition assay (cleavage and relaxation); assay type: biochemical; conditions: test compound at 1 mM, 100 μM, or 10 μM; plasmid DNA, agarose gel
Description: Topoisomerase II assay—Plasmid DNA (0.3 μg) was incubated at 37° C. with 4 units of purified recombinant human topoisomerase II in cleavage buffer (30 mM Tris.HCl, pH 7.6, 60 mM NaCl, 3 mM ATP, 15 mM mercaptoethanol, 8 mM MgCl2) with or without the addition of test compound (at 1 mM, 100 μM, or 10 μM final concentration). Reactions were stopped by the immediate addition of SDS (1% w/v final). Samples were treated with proteinase K (30 min at 37° C.) and extracted twice with an equal volume of […] CHCl3/i-amyl alcohol. […] Topoisomerase II inhibition was judged by the production of linear plasmid DNA, representing trapped cleavage intermediate, and by the ratio of substrate (spercoiled DNA) to product (relaxed DNA). A relaxation assay was performed identically, except that the reaction buffer was optimised for the detection of catalysis rather than cleavage, i.e. only 2 units of enzyme were used per sample. The reaction buffer was 50 mM Tris.HCl, pH 8, 120 mM KCl, 0.5 mM ATP, 0.5 mM dithiothreitol, 10 mM MgCl2. Topoisomerase II inhibition was judged by the ratio of substrate (supercoiled DNA) to product (relaxed DNA).

A2780Cis^R = assay: Carcinoma cell line panel, SRB-assay; conditions: Homo sapiens, A2780cisR, 96 h, read-out: 96-h IC50 cytotoxicity
Description: (§1) After incubation for 96 h, cytotoxicity was assessed using a standard SRB-assay.

A2780 = assay: Carcinoma cell line panel, SRB-assay; conditions: Homo sapiens, A2780, 96 h, read-out: 96-h IC50 cytotoxicity
Description: as §1

BE = assay: Carcinoma cell line panel, SRB-assay; conditions: 96 h, read-out: 96-h IC50 cytotoxicity
Description: as §1

CH1Dox^R = assay: Carcinoma cell line panel, SRB-assay; conditions: 96 h, read-out: 96-h IC50 cytotoxicity
Description: as §1

CH1Taxol^R = assay: Carcinoma cell line panel, SRB-assay; conditions: 96 h, read-out: 96-h IC50 cytotoxicity
Description: as §1

CH1 = assay: Carcinoma cell line panel, SRB-assay; conditions: Homo sapiens, CH1, 96 h, read-out: 96-h IC50 cytotoxicity
Description: as §1

COLO205 = assay: Carcinoma cell line panel, SRB-assay; conditions: Homo sapiens, COLO 205, 96 h, read-out: 96-h IC50 cytotoxicity
Description: as §1

DLD-1 = assay: Carcinoma cell line panel, SRB-assay; conditions: Homo sapiens, DLD-1, 96 h, read-out: 96-h IC50 cytotoxicity
Description: as §1

HCT116 = assay: Carcinoma cell line panel, SRB-assay; conditions: Homo sapiens, HCT-116, 96 h, read-out: 96-h IC50 cytotoxicity
Description: as §1

HT29 = assay: Carcinoma cell line panel, SRB-assay; conditions: Homo sapiens, HT-29, 96 h, read-out: 96-h IC50 cytotoxicity
Description: as §1

KM12 = assay: Carcinoma cell line panel, SRB-assay; conditions: Homo sapiens, KM12, 96 h, read-out: 96-h IC50 cytotoxicity
Description: as §1

LIM1215 = assay: Carcinoma cell line panel, SRB-assay; conditions: LIM1215, 96 h, read-out: 96-h IC50 cytotoxicity
Description: as §1

LS174T = assay: Carcinoma cell line panel, SRB-assay; conditions: Homo sapiens, 96 h, read-out: 96-h IC50 cytotoxicity
Description: as §1

SKOV-3 = assay: Carcinoma cell line panel, SRB-assay; conditions: Homo sapiens, SK-OV-3, 96 h, read-out: 96-h IC50 cytotoxicity
Description: as §1

A549 lung carcinoma = assay: Cytotoxic activity, MTT-assay; assay type: cell-based; conditions: Homo sapiens
Description: (§2) Assay procedure—Cells were seeded into 96-well plates at 2,500 cells per well in DMED, containing 10% FCS and antibiotics. After overnight incubation, test compounds were prepared as dilution series in cell medium (addition of dimethylsulfoxide in the case of free paclitaxel to effect partial dissolution) and were added to the cells. For the 1-h exposure samples, incubation was continued for 1 h, cell culture medium supernatants were removed and the wells were further washed with cell culture medium (5×2 min). Total viable cells were quantitated after a total of 72 h incubation using a standard MTT-assay.

MCF7 breast carcinoma = assay: Cytotoxic activity, MTT-assay; assay type: cell-based; conditions: Homo sapiens
Description: as §2

Chain of purified recombinant human topoisomerase II (P11388 whole entry): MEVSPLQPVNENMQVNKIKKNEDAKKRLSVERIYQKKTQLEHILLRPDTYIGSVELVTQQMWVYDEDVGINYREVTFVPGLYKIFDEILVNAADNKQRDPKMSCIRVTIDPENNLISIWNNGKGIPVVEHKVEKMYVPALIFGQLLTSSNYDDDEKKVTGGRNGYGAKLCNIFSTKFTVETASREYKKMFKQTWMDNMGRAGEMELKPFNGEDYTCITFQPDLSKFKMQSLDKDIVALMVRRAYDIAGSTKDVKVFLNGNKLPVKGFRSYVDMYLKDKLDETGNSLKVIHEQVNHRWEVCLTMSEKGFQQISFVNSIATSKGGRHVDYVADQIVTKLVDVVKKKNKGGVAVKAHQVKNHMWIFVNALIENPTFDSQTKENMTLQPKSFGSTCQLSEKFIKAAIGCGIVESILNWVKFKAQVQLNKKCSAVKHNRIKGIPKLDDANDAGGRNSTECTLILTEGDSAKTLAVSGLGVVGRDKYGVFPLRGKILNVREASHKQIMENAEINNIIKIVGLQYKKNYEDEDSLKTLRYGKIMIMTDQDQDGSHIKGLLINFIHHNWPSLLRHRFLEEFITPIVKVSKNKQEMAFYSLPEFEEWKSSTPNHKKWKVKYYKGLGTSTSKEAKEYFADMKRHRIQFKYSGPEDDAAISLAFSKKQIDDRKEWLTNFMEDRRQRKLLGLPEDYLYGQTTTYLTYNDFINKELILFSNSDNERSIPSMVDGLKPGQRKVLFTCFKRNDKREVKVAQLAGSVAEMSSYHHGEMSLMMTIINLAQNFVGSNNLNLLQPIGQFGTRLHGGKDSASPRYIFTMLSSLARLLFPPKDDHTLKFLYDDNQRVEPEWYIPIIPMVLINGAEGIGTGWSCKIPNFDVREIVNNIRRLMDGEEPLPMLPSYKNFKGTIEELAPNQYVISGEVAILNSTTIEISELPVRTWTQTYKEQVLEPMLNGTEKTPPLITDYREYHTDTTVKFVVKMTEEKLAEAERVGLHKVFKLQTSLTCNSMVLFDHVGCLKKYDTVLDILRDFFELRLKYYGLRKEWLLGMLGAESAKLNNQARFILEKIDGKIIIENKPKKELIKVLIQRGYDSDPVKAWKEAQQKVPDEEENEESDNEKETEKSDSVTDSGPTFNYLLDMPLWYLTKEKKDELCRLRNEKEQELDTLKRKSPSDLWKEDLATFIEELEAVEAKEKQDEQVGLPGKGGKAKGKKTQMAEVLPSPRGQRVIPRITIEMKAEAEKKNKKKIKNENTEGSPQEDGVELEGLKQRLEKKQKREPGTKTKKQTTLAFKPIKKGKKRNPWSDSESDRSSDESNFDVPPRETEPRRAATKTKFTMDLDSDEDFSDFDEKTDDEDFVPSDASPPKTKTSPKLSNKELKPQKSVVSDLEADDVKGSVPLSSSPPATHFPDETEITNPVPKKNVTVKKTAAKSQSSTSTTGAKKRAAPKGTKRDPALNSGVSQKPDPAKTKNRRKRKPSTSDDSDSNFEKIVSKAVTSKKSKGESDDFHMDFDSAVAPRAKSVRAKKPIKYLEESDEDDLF

For `CC[C@H](C)[C@H](NC(=O)[C@H](CCCCN)NC(=O)[C@@H](NC(=O)[C@H](CCC(N)=O)NC(=O)[C@H](CCCNC(=N)N)NC(=O)[C@@H](N)CSC1CC(=O)N(CCC(=O)O[C@@H](C(=O)O[C@H]2C[C@@]3(O)[C@@H](OC(=O)c4ccccc4)[C@@H]4[C@]5(OC(C)=O)CO[C@@H]5C[C@H](O)[C@@]4(C)C(=O)[C@H](OC(C)=O)C(=C2C)C3(C)C)[C@@H](NC(=O)c2ccccc2)c2ccccc2)C1=O)[C@@H](C)CC)C(=O)N[C@@H](Cc1c[nH]c2ccccc12)C(=O)N[C@@H](Cc1ccccc1)C(=O)N[C@@H](CCC(N)=O)C(=O)N[C@@H](CC(N)=O)C(=O)N[C@@H](CCCNC(=N)N)C(=O)N[C@@H](CCCNC(=N)N)C(=O)N[C@@H](CCSC)C(=O)N[C@@H](CCCCN)C(=O)N[C@@H](Cc1c[nH]c2ccccc12)C(=O)N[C@@H](CCCCN)C(=O)N[C@@H](CCCCN)C(N)=O` (single isomer, unassigned) [C], the half-life ([1]; cell-conditioned tissue culture medium (FCS in DMEM)) was > 12 h.
With `CC[C@H](C)[C@H](NC(=O)[C@H](CCCCN)NC(=O)[C@@H](NC(=O)[C@H](CCC(N)=O)NC(=O)[C@@H](N)CCCNC(=N)N)[C@@H](C)CC)C(=O)N[C@@H](Cc1c[nH]c2ccccc12)C(=O)N[C@@H](Cc1ccccc1)C(=O)N[C@@H](CCC(N)=O)C(=O)N[C@@H](CC(N)=O)C(=O)N[C@@H](CCCNC(=N)N)C(=O)N[C@@H](CCCNC(=N)N)C(=O)N[C@@H](CCSC)C(=O)N[C@@H](CCCCN)C(=O)N[C@@H](Cc1c[nH]c2ccccc12)C(=O)N[C@@H](CCCCN)C(=O)N[C@@H](CCCCN)C(N)=O` the half-life [2] was > 12 h.
With `CCC(C)[C@H](NC(=O)[C@H](CCCCN)NC(=O)[C@@H](NC(=O)[C@H](CCC(N)=O)NC(=O)[C@H](CCCNC(=N)N)NC(=O)[C@@H](N)CSC1CC(=O)N(CCC(=O)O[C@H]2c3cc4c(cc3[C@@H](c3cc(OC)c(OC)c(OC)c3)[C@H]3C(=O)OC[C@@H]32)OCO4)C1=O)C(C)CC)C(=O)N[C@@H](Cc1c[nH]c2ccccc12)C(=O)N[C@@H](Cc1ccccc1)C(=O)N[C@@H](CCC(N)=O)C(=O)N[C@@H](CC(N)=O)C(=O)N[C@@H](CCCNC(=N)N)C(=O)N[C@@H](CCCNC(=N)N)C(=O)N[C@@H](CCSC)C(=O)N[C@@H](CCCCN)C(=O)N[C@@H](Cc1c[nH]c2ccccc12)C(=O)N[C@@H](CCCCN)C(=O)N[C@@H](CCCCN)C(N)=O` (stereo partly shown) [A] the “Intact test compound in supernatant of solubilised cells” value (HL60 cells; RP-HPLC and MALDI-TOF MS) was “Intact test compound was identified”, the “Test compound in DMSO extracts of pellets” value (HL60 cells; insoluble fraction) was “no test compound was detected” and the half-life [1] was > 24 h.
For “H-RRMKWKK-NH2 [H-Arg-Arg-Met-Lys-Trp-Lys-Lys-NH2]”, the half-life [2] was 3 h.
In the case of “4′-Demethyl-4-[4″-aminoanilino-(succinimidopropionoyl)-(H-Cys-βAla-Arg-Arg-Met-Lys-Trp-Lys-Lys-NH2)]epipodophyllotoxin”, the Activity observed [3] is reported as “I”.
Molecule `COc1cc([C@@H]2c3cc4c(cc3[C@@H](O[C@@H]3O[C@@H]5CO[C@@H](C)O[C@H]5[C@H](O)[C@H]3O)[C@H]3COC(=O)[C@H]23)OCO4)cc(OC)c1O` [Etoposide] has an IC50 (A2780Cis^R) of 680 nM, an IC50 (A2780) of 210 nM and an IC50 (BE) of 1100 nM. For the same molecule, the IC50 (CH1Dox^R) was 6600 nM, the IC50 (CH1Taxol^R) was 145 nM and the IC50 (CH1) was 165 nM. It also gave an IC50 (COLO205) of 800 nM, an IC50 (DLD-1) of 570 nM and an IC50 (HCT116) of 1900 nM. It also gave an IC50 (HT29) of 2600 nM, an IC50 (KM12) of 580 nM and an IC50 (LIM1215) of 330 nM. The IC50 (LS174T) was 460 nM and the IC50 (SKOV-3) was 13000 nM.
In the case of RQIKIWFQNRRMKWK [15mer peptide], the “Serum stability of vector in words” value [2] is reported as “survive for several h”.
With `CCC(C)[C@H](NC(=O)[C@H](CCCCN)NC(=O)[C@@H](NC(=O)[C@H](CCC(N)=O)NC(=O)[C@H](CCCNC(=N)N)NC(=O)[C@@H](N)CSCC(=O)O[C@H]1c2cc3c(cc2[C@@H](c2cc(OC)c(OC)c(OC)c2)[C@H]2C(=O)OC[C@@H]21)OCO3)C(C)CC)C(=O)N[C@@H](Cc1c[nH]c2ccccc12)C(=O)N[C@@H](Cc1ccccc1)C(=O)N[C@@H](CCC(N)=O)C(=O)N[C@@H](CC(N)=O)C(=O)N[C@@H](CCCNC(=N)N)C(=O)N[C@@H](CCCNC(=N)N)C(=O)N[C@@H](CCSC)C(=O)N[C@@H](CCCCN)C(=O)N[C@@H](Cc1c[nH]c2ccccc12)C(=O)N[C@@H](CCCCN)C(=O)N[C@@H](CCCCN)C(=O)O` (stereo partly shown) [B] the half-life [1] was 0.667 h.
In the case of `CC(=O)O[C@H]1C(=O)[C@@]2(C)[C@H]([C@H](OC(=O)c3ccccc3)[C@]3(O)C[C@H](OC(=O)[C@H](O)[C@@H](NC(=O)c4ccccc4)c4ccccc4)C(C)=C1C3(C)C)[C@]1(OC(C)=O)CO[C@@H]1C[C@@H]2O` [Paclitaxel], the IC50 (A549 lung carcinoma; 72 h, A549, Exposure time 3 d) is reported as < 15 nM, the IC50 (A549 lung carcinoma; A549, Exposure time 1 h, then washed, viable cells after total 72 h) is reported as 28 nM and the IC50 (MCF7 breast carcinoma; 72 h, MCF7, Exposure time 3 d) is reported as < 15 nM. For the same molecule, the IC50 (MCF7 breast carcinoma; MCF7, Exposure time 1 h, then washed, viable cells after total 72 h) was 40 nM, the IC50 (A2780Cis^R) was 5.1 nM and the IC50 (A2780) was < 2.5 nM. For the same molecule, the IC50 (BE) was < 2.5 nM, the IC50 (CH1Dox^R) was 540 nM and the IC50 (CH1Taxol^R) was 5.8 nM. For the same molecule, the IC50 (CH1) was 4.15 nM, the IC50 (COLO205) was 2.6 nM and the IC50 (DLD-1) was 54 nM. The IC50 (HCT116) was < 2.5 nM, the IC50 (HT29) was < 2.5 nM and the IC50 (KM12) was 2.85 nM. For the same molecule, the IC50 (LIM1215) was 5.8 nM, the IC50 (LS174T) was 8.5 nM and the IC50 (SKOV-3) was 10 nM.
With `CC[C@@H](C)[C@@H](NC(=O)[C@@H](CCCCN)NC(=O)[C@H](NC(=O)[C@@H](CCC(N)=O)NC(=O)[C@H](N)CCCNC(=N)N)[C@H](C)CC)C(=O)N[C@H](Cc1c[nH]c2ccccc12)C(=O)N[C@H](Cc1ccccc1)C(=O)N[C@H](CCC(N)=O)C(=O)N[C@H](CC(N)=O)C(=O)N[C@H](CCCNC(=N)N)C(=O)N[C@H](CCCNC(=N)N)C(=O)N[C@H](CCSC)C(=O)N[C@H](CCCCN)C(=O)N[C@H](Cc1c[nH]c2ccccc12)C(=O)N[C@H](CCCCN)C(=O)N[C@H](CCCCN)C(N)=O` [H-D-Arg-D-Gln-D-Ile-D-Lys-D-Ile-D-Trp-D-Phe-D-Gln-D-Asn-D-Arg-D-Arg-D-Met-D-Lys-D-Trp-D-Lys-D-Lys-NH3] the half-life [2] was > 24 h.
For `COc1cc([C@@H]2c3cc4c(cc3[C@@H](Nc3ccc(N)cc3)[C@H]3COC(=O)[C@H]23)OCO4)cc(OC)c1O` [4′-Demethyl-4-(4″-aminoanilino)epipodophyllotoxin], the Activity observed [3] was “I”.
